Test results taken from US11725012B2, “Imidazo[1,5-a]pyrazine derivatives as PI3K δ inhibitors” (priority 2016, dated 2023).

Legend:
Type in all cases: biochemical
[1] = biological target: PI3K (p110γ) (Homo sapiens, UniProt P48736); assay: PI3Kγ ADP-Glo kinase assay; conditions: read-out: PI3Kγ Enzyme activity IC50
[2] = biological target: recombinant PI3K (p110α/p85α) (Homo sapiens, UniProt P42336); assay: PI3Kα ADP-Glo kinase assay; conditions: read-out: PI3Kα Enzyme activity IC50
[3] = biological target: recombinant PI3K (p110δ/p85α) (Homo sapiens, UniProt O00329); assay: PI3Kδ ADP-Glo kinase assay; conditions: read-out: PI3Kδ Enzyme activity IC50
recombinant PI3K (p110δ/p85α), sequence (O00329 whole entry): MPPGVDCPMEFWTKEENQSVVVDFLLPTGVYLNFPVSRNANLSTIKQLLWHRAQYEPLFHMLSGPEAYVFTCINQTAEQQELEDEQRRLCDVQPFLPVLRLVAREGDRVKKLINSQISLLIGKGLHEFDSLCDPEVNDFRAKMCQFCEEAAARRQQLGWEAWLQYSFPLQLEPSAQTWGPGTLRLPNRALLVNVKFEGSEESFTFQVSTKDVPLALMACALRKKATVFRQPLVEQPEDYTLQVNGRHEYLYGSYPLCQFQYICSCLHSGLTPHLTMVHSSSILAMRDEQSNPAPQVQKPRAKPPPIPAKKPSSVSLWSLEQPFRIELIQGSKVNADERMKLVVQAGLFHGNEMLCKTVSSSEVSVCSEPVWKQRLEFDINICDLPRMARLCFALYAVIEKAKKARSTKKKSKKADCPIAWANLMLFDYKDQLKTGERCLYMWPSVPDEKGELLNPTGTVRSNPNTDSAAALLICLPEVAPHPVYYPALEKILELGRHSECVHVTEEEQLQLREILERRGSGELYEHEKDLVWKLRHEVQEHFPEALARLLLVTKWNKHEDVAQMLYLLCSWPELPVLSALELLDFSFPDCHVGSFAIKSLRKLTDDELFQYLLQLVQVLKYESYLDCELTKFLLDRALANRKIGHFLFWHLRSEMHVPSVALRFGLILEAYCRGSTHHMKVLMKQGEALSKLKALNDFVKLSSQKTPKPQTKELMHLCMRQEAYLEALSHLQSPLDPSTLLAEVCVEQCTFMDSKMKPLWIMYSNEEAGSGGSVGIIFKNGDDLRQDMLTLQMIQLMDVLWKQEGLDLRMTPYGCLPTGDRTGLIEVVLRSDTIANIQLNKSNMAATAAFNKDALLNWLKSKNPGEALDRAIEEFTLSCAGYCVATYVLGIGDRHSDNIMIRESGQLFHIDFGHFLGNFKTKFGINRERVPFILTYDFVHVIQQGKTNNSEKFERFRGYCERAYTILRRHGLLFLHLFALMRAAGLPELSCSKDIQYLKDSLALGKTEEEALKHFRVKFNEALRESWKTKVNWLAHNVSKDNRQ
recombinant PI3K (p110δ/p85α), sequence (P27986 whole entry partner): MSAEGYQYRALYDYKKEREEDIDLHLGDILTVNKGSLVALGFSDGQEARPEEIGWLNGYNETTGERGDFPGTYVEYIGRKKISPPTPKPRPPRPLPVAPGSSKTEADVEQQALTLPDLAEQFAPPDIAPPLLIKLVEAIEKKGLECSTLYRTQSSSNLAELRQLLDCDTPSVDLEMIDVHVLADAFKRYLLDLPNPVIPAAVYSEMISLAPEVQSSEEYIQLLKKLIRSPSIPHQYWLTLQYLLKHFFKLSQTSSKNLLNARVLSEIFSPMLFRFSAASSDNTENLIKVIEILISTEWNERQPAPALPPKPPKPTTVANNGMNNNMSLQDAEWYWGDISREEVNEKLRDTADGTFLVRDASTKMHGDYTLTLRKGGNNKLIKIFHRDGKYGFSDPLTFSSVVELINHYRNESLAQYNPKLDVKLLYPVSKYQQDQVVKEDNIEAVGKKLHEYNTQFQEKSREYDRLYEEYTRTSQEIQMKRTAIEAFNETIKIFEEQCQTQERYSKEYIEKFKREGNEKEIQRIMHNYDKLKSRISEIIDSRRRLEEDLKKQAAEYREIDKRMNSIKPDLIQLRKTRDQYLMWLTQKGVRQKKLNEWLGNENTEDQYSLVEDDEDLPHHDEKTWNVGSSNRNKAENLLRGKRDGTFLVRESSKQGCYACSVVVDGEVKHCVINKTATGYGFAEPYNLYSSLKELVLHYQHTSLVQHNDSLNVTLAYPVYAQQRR
Description: Compounds disclosed herein were tested for inhibition of PI3Kδ kinase activity using commercial ADP-Glo™ Kinase Assay (Promega Corporation) and following the manufacture's instruction. Briefly, recombinant PI3K (p110δ/p85α) enzyme, lipid kinase substrate and a serial dilution of compounds disclosed herein were incubated for 0.5 hr at room temperature. ATP was added to initiate the kinase reaction. After incubation for 1 hr at room temperature, ADP-Glo™ reagent was added to terminate the kinase reaction and deplete the remaining ATP. After incubation for 1 hr at room temperature, kinase detection reagent was added to simultaneously convert ADP to ATP and allow the newly synthesized ATP to be measured using a luciferase/luciferin reaction. After incubation for 0.5 hr at room temperature, the luminescence generated was measured on a PHERAstar FS plate reader (BMG LABTECH), The residual enzyme activity in presence of increasing concentrations of compounds was calculated based on the luminescence. The IC50 for each compound was derived from fitting the data to the four-parameter logistic equation by Graphpad Prism software.

[4] = biological target: PI3K (p110β/p85α) (Homo sapiens, UniProt P42338); assay: PI3Kβ ADP-Glo kinase assay; conditions: read-out: PI3Kβ Enzyme activity IC50
PI3K (p110β/p85α), sequence (P42338 whole entry): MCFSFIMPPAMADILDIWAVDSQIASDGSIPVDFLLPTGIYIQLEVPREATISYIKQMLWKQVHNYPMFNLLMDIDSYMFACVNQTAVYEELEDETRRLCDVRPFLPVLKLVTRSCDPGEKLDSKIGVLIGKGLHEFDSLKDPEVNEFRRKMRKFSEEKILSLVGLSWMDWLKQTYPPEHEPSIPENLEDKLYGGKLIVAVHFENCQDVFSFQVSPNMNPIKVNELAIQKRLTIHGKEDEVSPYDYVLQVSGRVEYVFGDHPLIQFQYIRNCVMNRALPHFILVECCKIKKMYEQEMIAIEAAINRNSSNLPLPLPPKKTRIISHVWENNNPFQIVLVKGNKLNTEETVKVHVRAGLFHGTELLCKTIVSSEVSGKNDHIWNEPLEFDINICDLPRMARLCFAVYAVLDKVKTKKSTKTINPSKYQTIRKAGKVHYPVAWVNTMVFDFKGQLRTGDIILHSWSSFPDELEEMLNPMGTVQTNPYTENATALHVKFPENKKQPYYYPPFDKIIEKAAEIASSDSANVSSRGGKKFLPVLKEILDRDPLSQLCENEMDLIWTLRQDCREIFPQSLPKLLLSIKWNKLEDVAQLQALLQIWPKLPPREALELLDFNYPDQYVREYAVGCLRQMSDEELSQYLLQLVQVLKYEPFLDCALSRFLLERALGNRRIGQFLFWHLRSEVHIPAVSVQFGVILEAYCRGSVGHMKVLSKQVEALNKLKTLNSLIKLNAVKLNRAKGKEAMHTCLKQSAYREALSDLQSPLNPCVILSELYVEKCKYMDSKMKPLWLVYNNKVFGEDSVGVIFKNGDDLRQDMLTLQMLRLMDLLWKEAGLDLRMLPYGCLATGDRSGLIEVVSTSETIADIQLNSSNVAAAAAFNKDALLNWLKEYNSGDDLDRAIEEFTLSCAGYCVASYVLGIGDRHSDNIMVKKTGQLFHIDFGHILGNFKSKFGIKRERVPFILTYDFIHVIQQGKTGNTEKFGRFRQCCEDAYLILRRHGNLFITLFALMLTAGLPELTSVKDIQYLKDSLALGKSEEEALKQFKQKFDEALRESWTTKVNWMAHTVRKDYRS
PI3K (p110β/p85α), sequence (P27986 whole entry partner): as the sequence (P27986 whole entry partner) above

recombinant PI3K (p110α/p85α), sequence (P42336 whole entry): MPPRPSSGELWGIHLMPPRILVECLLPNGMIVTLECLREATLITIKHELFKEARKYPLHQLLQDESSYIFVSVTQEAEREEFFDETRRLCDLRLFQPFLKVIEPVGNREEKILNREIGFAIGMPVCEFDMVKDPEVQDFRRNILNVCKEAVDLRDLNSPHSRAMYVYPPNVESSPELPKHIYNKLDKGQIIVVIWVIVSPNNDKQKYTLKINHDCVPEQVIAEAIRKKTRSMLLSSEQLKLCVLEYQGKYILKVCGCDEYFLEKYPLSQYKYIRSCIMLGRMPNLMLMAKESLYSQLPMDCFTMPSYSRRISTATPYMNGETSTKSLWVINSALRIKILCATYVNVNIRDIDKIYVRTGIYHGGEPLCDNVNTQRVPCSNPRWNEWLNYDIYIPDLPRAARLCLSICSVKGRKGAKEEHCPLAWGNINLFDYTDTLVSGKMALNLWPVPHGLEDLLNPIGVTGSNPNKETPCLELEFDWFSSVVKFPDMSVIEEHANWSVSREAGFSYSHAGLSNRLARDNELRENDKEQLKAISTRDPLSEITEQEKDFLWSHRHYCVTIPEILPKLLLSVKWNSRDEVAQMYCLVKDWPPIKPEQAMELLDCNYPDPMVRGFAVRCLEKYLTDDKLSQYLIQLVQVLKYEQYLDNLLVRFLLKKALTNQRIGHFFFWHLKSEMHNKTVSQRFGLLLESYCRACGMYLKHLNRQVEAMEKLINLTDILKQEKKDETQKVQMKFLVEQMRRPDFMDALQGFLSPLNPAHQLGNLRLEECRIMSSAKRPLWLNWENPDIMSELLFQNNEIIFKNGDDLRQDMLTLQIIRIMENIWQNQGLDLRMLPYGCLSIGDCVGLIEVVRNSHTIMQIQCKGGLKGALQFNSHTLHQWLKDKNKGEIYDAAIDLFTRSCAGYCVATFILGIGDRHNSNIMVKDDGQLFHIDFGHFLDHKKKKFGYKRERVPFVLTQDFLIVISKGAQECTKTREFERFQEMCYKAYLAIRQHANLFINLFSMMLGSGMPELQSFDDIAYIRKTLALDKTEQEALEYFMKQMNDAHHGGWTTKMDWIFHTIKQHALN
recombinant PI3K (p110α/p85α), sequence (P27986 whole entry partner): as the sequence (P27986 whole entry partner) above
PI3K (p110γ), sequence (P48736 whole entry): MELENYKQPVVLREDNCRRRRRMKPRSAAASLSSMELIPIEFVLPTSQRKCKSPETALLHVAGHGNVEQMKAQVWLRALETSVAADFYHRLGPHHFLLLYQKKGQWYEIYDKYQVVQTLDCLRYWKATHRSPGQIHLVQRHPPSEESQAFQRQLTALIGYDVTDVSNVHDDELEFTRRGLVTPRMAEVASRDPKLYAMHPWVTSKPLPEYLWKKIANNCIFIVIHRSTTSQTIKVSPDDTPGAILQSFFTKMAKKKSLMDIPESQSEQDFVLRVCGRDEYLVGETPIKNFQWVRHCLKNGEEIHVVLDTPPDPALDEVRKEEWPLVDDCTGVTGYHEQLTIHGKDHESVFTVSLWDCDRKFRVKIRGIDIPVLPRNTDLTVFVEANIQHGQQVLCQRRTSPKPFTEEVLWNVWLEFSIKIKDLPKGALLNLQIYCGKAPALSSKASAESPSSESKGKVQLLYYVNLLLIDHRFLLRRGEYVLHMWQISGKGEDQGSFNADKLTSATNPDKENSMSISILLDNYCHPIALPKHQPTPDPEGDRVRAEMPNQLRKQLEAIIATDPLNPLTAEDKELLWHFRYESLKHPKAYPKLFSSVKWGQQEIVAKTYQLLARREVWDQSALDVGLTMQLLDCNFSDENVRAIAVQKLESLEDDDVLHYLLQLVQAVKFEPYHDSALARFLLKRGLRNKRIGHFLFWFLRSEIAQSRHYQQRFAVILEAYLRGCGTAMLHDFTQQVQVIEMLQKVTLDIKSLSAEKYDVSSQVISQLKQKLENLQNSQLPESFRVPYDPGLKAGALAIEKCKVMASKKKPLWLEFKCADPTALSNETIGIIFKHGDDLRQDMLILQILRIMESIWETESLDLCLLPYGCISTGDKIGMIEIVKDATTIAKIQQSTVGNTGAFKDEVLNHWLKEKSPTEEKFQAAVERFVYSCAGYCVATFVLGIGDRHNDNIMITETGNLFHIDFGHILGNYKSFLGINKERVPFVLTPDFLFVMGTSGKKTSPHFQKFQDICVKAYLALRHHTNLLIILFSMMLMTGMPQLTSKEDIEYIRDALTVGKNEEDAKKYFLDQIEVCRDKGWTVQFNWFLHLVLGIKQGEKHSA

| SMILES | IC50 [1] [nM] | IC50 [2] [nM] | IC50 [3] [nM] | IC50 [4] [nM] |
| --- | --- | --- | --- | --- |
| CCOc1c(C(C)c2nc(Cl)c3c(N)nccn23)cc(Cl)c(C)c1N1CCOCC1 (single isomer, unassigned) [Compound 51A, 1-chloro-3-(1-(5-chloro-2-ethoxy-4-methyl-3-morpholinophenyl)ethyl)imidazo[1,5-a]pyrazin-8-amine] | 1200 | 2100 | 0.79 | 480 |
| Cc1nc(C(C)c2cc(Cl)c(F)c(-c3ccc(C#N)nc3)c2OC(C)C)n2ccnc(N)c12 (single isomer, unassigned) [Compound 59A, 5-(3-(1-(8-amino-1-methylimidazo[1,5-a]pyrazin-3-yl)ethyl)-5-chloro-6-fluoro-2-isopropoxyphenyl)picolinonitrile] | 2700 | 6300 | 1.2 | 1400 |
| CCOc1c(C(C)c2nc(Cl)c3c(N)nccn23)cc(Cl)c(C)c1-c1ccc(C)nc1 (centres unmarked) [Compound 8, 1-chloro-3-(1-(5-chloro-2-ethoxy-4-methyl-3-(6-methylpyridin-3-yl)phenyl)ethyl) imidazo[1,5-a]pyrazin-8-amine] | 260 | 1400 | 1.1 | 350 |
| CCOc1c([C@H](C)c2nc(Cl)c3c(N)nccn23)cc(Cl)c(C)c1-c1ccc(C)nc1 [Compound 8A] | 300 | 1300 | 0.51 | 580 |
| CCOc1c(C(C)c2nc(-c3cccc(O)c3)c3c(N)nccn23)cc(Cl)c(C)c1-c1ccc(C(F)(F)F)nc1 (centres unmarked) [Compound 10, 3-(8-amino-3-(1-(5-chloro-2-ethoxy-4-methyl-3-(6-(trifluoromethyl)pyridin-3-yl)phenyl)ethyl)imidazo[1,5-a]pyrazin-1-yl)phenol] | 1500 | 3200 | 9.1 | 2700 |
| CCOc1c([C@H](C)c2nc(Cl)c3c(N)nccn23)cc(Cl)c(C)c1-c1ccc(C(=O)N(C)C)nc1 [Compound 11, (S)-5-(3-(1-(8-amino-1-chloroimidazo[1,5-a]pyrazin-3-yl)ethyl)-5-chloro-2-ethoxy-6-methylphenyl)-N,N-dimethylpicolinamide] | 190 | 540 | 0.54 | 360 |
| CCOc1c([C@H](C)c2nc(Cl)c3c(N)nccn23)cc(Cl)c(C)c1-c1ccc(C(=O)O)nc1 [Compound 12] | 67 | 1300 | 1.7 | 870 |
| CCOc1c(C(C)c2nc(Cl)c3c(N)nccn23)cc(Cl)c(F)c1-c1ccc(C(=O)N(C)C)nc1 (centres unmarked) [Compound 13, 5-(3-(1-(8-amino-1-chloroimidazo[1,5-a]pyrazin-3-yl)ethyl)-5-chloro-2-ethoxy-6-fluorophenyl)-N,N-dimethylpicolinamide] | 480 | 1200 | 1.2 | 400 |
| CCOc1c(C(C)c2nc(Cl)c3c(N)nccn23)cc(Cl)c(C)c1-c1ccc(=O)[nH]c1 (centres unmarked) [Compound 15, 5-(3-(1-(8-amino-1-chloroimidazo[1,5-a]pyrazin-3-yl)ethyl)-5-chloro-2-ethoxy-6-methylphenyl)pyridin-2(1H)-one] | 320 | 830 | 1.2 | 320 |
| CC(C)Oc1c(C(C)c2nc(Cl)c3c(N)nccn23)cc(Cl)c(F)c1-c1ccc(C(N)=O)nc1 (centres unmarked) [Compound 17, 5-(3-(1-(8-amino-1-chloroimidazo[1,5-a]pyrazin-3-yl)ethyl)-5-chloro-6-fluoro-2-isopropoxyphenyl)picolinamide] | 1900 | 3100 | 1.5 | 1600 |
| CC(C)Oc1c([C@H](C)c2nc(Cl)c3c(N)nccn23)cc(Cl)c(F)c1-c1ccc(C(N)=O)nc1 [Compound 17B] | 520 | 970 | 0.28 | 670 |
